In patent publication US6989397B1, “Iron chelators and uses thereof” (University of Queensland, priority 1999, dated 2006):
Where “and” joins values, the source holds several entries; their conditions need not be identical. Equal entries are not always repeated. Where two headings read alike, the source gives them in different places.

What was measured:
[1] = aqueous solubility; assay type: physicochemical; details: water / aqueous solutions
[2] = tested on: 59Fe-loaded reticulocytes; test: mobilisation of 59Fe from 59Fe-loaded reticulocytes (mitochondrial Fe overload model); assay type: cell-based, rabbit; details: for cellular 59Fe released from 59Fe-loaded reticulocytes, 1 h reincubation (FIG. 9): chelator concentration 200 μM (range 10–200 μM), reincubated 1 h at 37° C.; for cellular 59Fe mobilized from 59Fe-loaded reticulocytes after 240 min: chelators 200 μM, 240 min of incubation
Description: (§1) FIG. 7. The effect of reincubation time with the Fe chelators on ^59Fe mobilization from ^59Fe-loaded reticulocytes. The cells were labelled with ^59Fe-transferrin (3.75 μM) in the presence of the heme synthesis inhibitor, succinylacetone (1 mM), and incubated with the cells for 1 h at 37° C. The ^59Fe-labelled reticulocytes were then incubated with the chelators (200 μM) for 15–240 min at 37° C. The results are Mean±SD (3 determinations) in a typical experiment of three performed.
as §1, with “9.” for “7.”, “chelator concentration” for “reincubation time with the Fe chelators”, “(10–200” for “(200”
Reticulocytosis was induced by standard procedures (Richardson, D. R., Ponka, P and Vyoral, D (1996) Blood 87, 3477–3488) in New Zealand white rabbits by repeated phlebotomy by cardiac puncture using a protocol approved by the McGill University Animal Care Committee. Reticulocytes were identified based on staining with new methylene blue, and cell counts were determined using an improved Neubauer counting chamber.
Reticulocytes were obtained from chronically bled rabbits as described above and were incubated with 1 mM succinylacetone (SA: Sigma) to inhibit heme synthesis. After a 15 min preincubation in the presence of SA, ^59Fe-Tf ([…]) was added and incubated with the cells for 1 H at 37° C. with shaking. After this incubation the reticulocytes were washed three times with ice-cold PBS to remove non-specifically bound ^59Fe-Tf. The washed ^59Fe-labelled reticulocytes (30–35 μL) were incubated in buffered salt solution (250 μL final volume) with the apochelators. The SA was present in all incubations with the chelators to prevent the utilization of non-heme ^59Fe for heme synthesis. After the incubation, ^59Fe was measured both in washed reticulocytes and in the medium, and the percentage of ^59Fe mobilized from the reticulocytes was then calculated.

[3] = tested on: iron-regulatory proteins (IRPs); test: iron regulatory protein gel-retardation assay (IRP-RNA binding activity); assay type: cell-based, human; details: SK-N-MC cells, 20 hr incubation; chelators 25 μM, DFO 100 μM, FAC 100 μg/ml
Description: FIG. 5. The effect of the chelators on the RNA-binding activity of the iron-regulatory proteins (IRPs) in the SK-N-MC neuroepithelioma cells. Cells were incubated for 20 h with either medium alone (control), ferric ammonium citrate (FAC: 100 μg/ml), DFO (100 μM), or the other chelators (25 μM).
A gel-retardation assay was used to measure the interaction between the IRPs and IRE using established techniques (Leibold et al., […]. Proc. Natl. Acad. Sci. USA 85 2171–5; Müllner et al., 1989 Cell 58 373–82). Briefly, after incubation with medium alone (control) or medium containing ferric ammonium citrate (100 μg/ml: Aldrich Ltd., Sydney, Australia) or the chelator. […] cells were washed with ice-cold phosphate-buffered saline (PBS) and lysed at 4° C. in 40 μl of ice-cold Munro extraction buffer (10 mM HEPES, pH 7.6, 3 mM MgCl2, 40 mM KCl, 5% glycerol, 1 MM dithiothreitol and 0.5% Nonidet P-40). After lysis, the samples were then centrifuged at 10,000 rpm for 3 mins at 4° C. to remove nuclei and the supernatant stored at −70° C. Frozen cytoplasmic extracts were thawed on ice and then centrifuged at 15,000 rpm for 10 min at 4° C. The protein concentration of the soluble supernatant was determined using the BioRad protein assay (BioRad Ltd., USA). Samples of cytoplasmic extracts were diluted to a protein concentration of 100 μg/ml in Munro buffer without Nonidet P-40 and 1 μg aliquots were analyzed for IRP by incubation with 0.1 ng (approximately 1×10^5 cpm) of ^32P-labelled pGL66 RNA transcript (Leibold et al., 1988). The riboprobe was transcribed in vitro from linearized plasmid templates using SP6 RNA polymerase in the presence of α-^32P UTP (Dupont, NEN). This latter reaction was performed using the Promega Riboprobe In Vitro Transcription Kit (Promega, Madison, Wis., USA). The probe was subsequently purified on a 6% urea/PAGE gel. To form RNA-protein complexes, cytoplasmic extracts containing 1 μg of protein were incubated for 10 mins at room temperature with the ^32P-labelled riboprobe. Unprotected probe was degraded by incubation with 1 U of RNAse T1 for 10 mins at room temperature. Heparin (Sigma) at a final concentration of 5 mg/ml was then added and incubated with the extract for another 10 min at room temperature to exclude non-specific binding. RNA-protein complexes were analyzed in 6% non-denaturing polyacrylamide gels at 4° C. as described by Konarska et al., 1986, Cell 46 845–55. Gels were dried, covered in plastic film and exposed to Kodak XAR films at −70° C. with an intensifying screen.
An important effect of intracellular Fe depletion using DFO is the activation of RNA-binding activity of the iron regulatory proteins (IRP's) (Hentze et al., 1996, Proc. Natl. Acad. Sci. USA 93 8175–82). […] The present inventors examined the effect of a 20 hr incubation with 311, PIH and the PCIH analogues (25 μM) on IRP-RNA binding activity in SK-N-MC cells. In all experiments, DFO (100 μM) was used as a positive control to deplete cells of Fe and increase IRP-RNA binding activity. In contrast, ferric ammonium citrate (FAC: 100 μg/ml) was used to donate Fe to cells and reduce IRP-RNA binding.

[4] = tested on: SK-N-MC neuroepithelioma cells; test: internalized 59Fe uptake from 59Fe-transferrin; assay type: cell-based, human; details: SK-N-MC; 3 hrs at 37° C.; chelators 50 μM, DFO 100 μM; FIG. 2B screening experiment
Description: The effect of chelators on ^59Fe uptake from ^59Fe-Tf and ^59Fe release from prelabelled cells was studied using standard procedures reported previously (Richardson et al., 1994, J. Lab Clin. Med. 124 660-71). The amount of ^59Fe internalized by the cells was measured by incubation with the general protease pronase (1 mg/ml) for 30 min at 4° C. to remove membrane-bound ^59Fe and Tf (Richardson et al., 1990; Baker et al., 1998, Biochim. Biophys. Acta 1380 21-30). […] To determine the ability of the chelators to inhibit ^59Fe uptake from ^59Fe-Tf (0.75 μM). […] Table 2. The effect of DFO, 311, […], or PCBHH on internalized ^59Fe uptake from ^59Fe-transferrin by BE-2 neuroblastoma cells, SK-N-MC neuroepithelioma cells, and SK-Mel-28 melanoma cells. Cells were incubated with the chelators and ^59Fe-transferrin (0.75 μM) for 3 h at 37° C., washed, and incubated for 30 min at 4° C. with pronase (1 mg/ml) to separate the internalized from the membrane-bound ^59Fe. All chelators were screened at a concentration of 50 μM except for DFO which was examined at 100 μM. Results are mean±SD (three determinations) from a typical experiment.

[5] = tested on: SK-N-MC neuroepithelioma cells; test: 59Fe release from prelabelled cells (iron efflux); assay type: cell-based, human; details: 3 hr labelling, 3 hr reincubation, ligands 50 μM, DFO 100 μM, FIG. 2A screening experiment
Description: The effect of chelators on ^59Fe uptake from ^59Fe-Tf and ^59Fe release from prelabelled cells was studied using standard procedures reported previously (Richardson et al., 1994, J. Lab Clin. Med. 124 660–71). The amount of ^59Fe internalized by the cells was measured by incubation with the general protease pronase (1 mg/ml) for 30 min at 4° C. to remove membrane-bound ^59Fe and Tf (Richardson et al., 1990; Baker et al., 1998, Biochim. Biophys. Acta 1380 21–30).
The efflux of ^59Fe from SK-N-MC cells was examined after a 3 hr labelling period with ^59Fe-Tf (0.75 μM) followed by a 3 hr reincubation in the presence and absence of DFO (100 μM) or the remainder of the ligands at 50 μM (FIG. 2A).
Table 1. The effect of DFO, 311, PCTH, PCBH, or PCBHH on ^59Fe release from BE-2 neuroblastoma cells, SK-N-MC neuroepithelioma cells, and SK-Mel-28 melanoma cells. Cells were labeled for 3 h at 37° C. with ^59Fe-transferrin (0.75 μM), washed, and then reincubated with the chelators for 3 h at 37° C. […] Results are Mean±SD of three determinations in a typical experiment.

[6] = tested on: iron-regulatory proteins (IRPs); test: iron regulatory protein gel-retardation assay (IRP-RNA binding activity); assay type: cell-based, human
[7] = tested on: SK-N-MC neuroepithelioma cells; test: 3H-thymidine, 3H-leucine or 3H-uridine incorporation; assay type: cell-based, human; details: 20 hr with chelators 50 μM, DFO 100 μM, then label 2 h, Mean±SD
Description: Labelling of cells with ^3H-thymidine (20 Ci/mmol: Dupont NEN, MA, U.S.A.), ^3H-uridine (42.7 Ci/mmol/Dupont NEN, MA, U.S.A.) and ^3H-leucine (52 Ci/mmol: Dupont NEN) was estimated after precipitation with trichloroacetic acid (TCA). After a 20 hr incubation with the chelators, ^3H-leucine, ^3H-uridine or ^3H-thymidine (1 μCi/ml) were then added for 2 hrs at 37° C. Subsequently, petri dishes containing cell cultures were placed on ice and washed four times with ice-cold Hanks' balanced salt solution (BSS) and the cells detached from the plate using 1 mM EDTA in Ca/Mg-free saline. The cells were then pelleted by centrifugation, the supernatant removed and the pellet frozen at −70° C. After thawing the cells on ice, 1 ml of ice-cold 20% TCA was added and the solution then vortexed and kept on ice for 1 hr with periodic mixing. This solution was then centrifuged at 15,000 rpm for 15 mins at 4° C. and the supernatant removed. The pellet was then washed twice with 1 ml of ice-cold 10% TCA. The pellet was dissolved in 0.5 ml of 1 M NaOH and transferred to scintillation tubes with 3 ml of scintillant. Radioactivity was measured on a β-scintillation counter (LKB Wallace, Finland).
Table 3. The effect of the chelators on ^3H-thymidine, ^3H-leucine, or ^3H-uridine incorporation into SK-N-MC neuroepithelioma cells. Cells were incubated for 20 hr at 37° C. with either DFO (100 μM) or the other chelators (50 μM). Following this, either ^3H-thymidine, ^3H-leucine, or ^3H-uridine (1 μCi/mL) were added and the cells incubated for an additional 2 h at 37° C. (see Methods for details). Results are Mean±SD (4–5 determinations) from a typical experiment of 2–4 experiments performed.

[8] = Fe-overloaded patients (Olivieri et al.); cited from earlier work

**Q.** For Cl.Cl.O=C(NN=Cc1ccccn1)c1ccncc1 [PCIH-2HCl], which “aqueous solubility, in words” value [1] is on record?
**A.** most soluble

**Q.** With O=C(NN=Cc1ccccn1)c1ccncc1 [PCIH, 2-pyridylcarboxaldehyde isonicotinoyl hydrazone] as the compound, how does the “cellular 59Fe mobilized from 59Fe-loaded reticulocytes after 15 min” value ([2]; chelator 200 μM, 15 min incubation, 37° C., FIG. 7, 3 determinations) read?
**A.** 21±1%

**Q.** And the “cellular 59Fe released from 59Fe-loaded reticulocytes, 1 h reincubation (FIG. 9)” value ([2]; 3 determinations)?
**A.** 31±1%

**Q.** What about the “cellular 59Fe release from reticulocytes as a function of incubation time (FIG. 7), rank in words” value ([2]; eight compounds, 200 μM, reincubated up to 240 min) of the same compound?
**A.** most effective

**Q.** And the “IRP-RNA binding activity compared to the control (FIG. 5)” value [3]?
**A.** little effect

**Q.** What about the “59Fe uptake from 59Fe-Tf, % of the control value (FIG. 2B)” value [4] of the same compound?
**A.** slightly more effective than DFO

**Q.** What does the source list for O=C(NN=Cc1ccccn1)c1ccc(O)cc1 [PCHH, 2-pyridylcarboxaldehyde p-hydroxybenzoyl hydrazone]?
**A.** cellular 59Fe released from 59Fe-loaded reticulocytes, 1 h reincubation (FIG. 9) ([2]; 3 determinations): very low activity; cellular 59Fe mobilized from 59Fe-loaded reticulocytes after 240 min ([2]; FIG. 7): 6%; IRP-RNA binding activity compared to the control (FIG. 5) [3]: decreased; release of cellular 59Fe (FIG. 2A) [5]: did not appreciably increase; 59Fe uptake from 59Fe-Tf, % of the control value (FIG. 2B) [4]: no effect

**Q.** For ferric ammonium citrate [FAC], which “IRP-RNA binding activity compared to the control (FIG. 5)” value [6] is on record?
**A.** appreciable decrease

**Q.** Which “cellular 59Fe released from 59Fe-loaded reticulocytes, 1 h reincubation (FIG. 9)” value ([2]; 3 determinations) does the source give for Cc1ncc(CO)c(C=NNC(=O)c2ccncc2)c1O [PIH, pyridoxal isonicotinoyl hydrazone, reference compound] here?
**A.** 18±1%

**Q.** What about the “IRP-RNA binding activity at higher concentrations” value ([6]; higher concentrations than 25 μM, not specified) of the same compound?
**A.** did increase

**Q.** And the “IRP-RNA binding activity compared to the control (FIG. 5)” value [3]?
**A.** little effect

**Q.** And the “3H-Leucine incorporation, % Control” value [7]?
**A.** 84 ± 5 % Control

**Q.** What about the “3H-Thymidine incorporation, % Control” value [7] of the same compound?
**A.** 52 % Control and 52 ± 9 % Control

**Q.** And the “3H-Uridine incorporation, % Control” value [7]?
**A.** 56 ± 9 % Control

**Q.** With Cl.O=C(NN=Cc1ccccn1)c1cccs1 [PCTH-HCl] as the compound, how does the “aqueous solubility, in words” value [1] read?
**A.** lowest aqueous solubility of the series

**Q.** For Cc1c(O)c(=O)ccn1C [deferiprone, 1,2-dimethyl-3-hydroxypyrid-4-one], which “adverse outcome of treatment of patients” value [8] is on record?
**A.** hepatic fibrosis and an increase in liver Fe levels

**Q.** Which “cellular 59Fe mobilized from 59Fe-loaded reticulocytes after 240 min” value ([2]; FIG. 7) does the source give for Nc1ccc(C(=O)NN=Cc2ccccn2)cc1 [PCAH, 2-pyridylcarboxaldehyde p-aminobenzoyl hydrazone] here?
**A.** 15%

**Q.** What about the “IRP-RNA binding activity compared to the control (FIG. 5)” value [3] of the same compound?
**A.** decreased

**Q.** What about the “release of cellular 59Fe (FIG. 2A)” value [5] of the same compound?
**A.** did not appreciably increase

**Q.** What about the “59Fe uptake from 59Fe-Tf, % of the control value (FIG. 2B)” value [4] of the same compound?
**A.** no effect
